Earlier results in US20250216408A1, “REAGENT COMBINATION AND METHOD FOR DETECTING TARGET IMMUNOSUPPRESSANT IN WHOLE BLOOD WITHOUT CENTRIFUGATION” (Shenzhen New Industries Biomedical Engineering co., Ltd., priority 2023, published 2025).

How the values were obtained:
[1] = FK506 in plasma

| Share of drug in whole blood taken up by / present in / bound to red blood cells | Plasma protein binding rate [1] | Compound |
| --- | --- | --- |
| 75%-80% | over 98% | C=CC[C@@H]1/C=C(\C)C[C@H](C)C[C@H](OC)[C@H]2O[C@@](O)(C(=O)C(=O)N3CCCC[C@H]3C(=O)O[C@H](/C(C)=C/[C@@H]3CC[C@@H](O)[C@H](OC)C3)[C@H](C)[C@@H](O)CC1=O)[C@H](C)C[C@@H]2OC [FK506, tacrolimus] |
| 95% | – | CO[C@H]1C[C@@H]2CC[C@@H](C)[C@@](O)(O2)C(=O)C(=O)N2CCCC[C@H]2C(=O)O[C@H]([C@H](C)C[C@@H]2CC[C@@H](O)[C@H](OC)C2)CC(=O)[C@H](C)/C=C(\C)[C@@H](O)[C@@H](OC)C(=O)[C@H](C)C[C@H](C)/C=C/C=C/C=C/1C [sirolimus] |
